Earlier results, collected in patent US20090306209A1, “ENTERIC-COATED FORMULATIONS OF POLYETHYLENE GLYCOL AND ONE OR MORE SOLUBLE AMINO ACIDS FOR ORAL INGESTION AND ENHANCED UPTAKE OF SAME” (priority 2008, published 2009).
Read-outs that look alike come from different tables or passages of the source.

Conditions: for solubility in water (in words): temperature not stated

Structure (SMILES) | solubility in water (in words) | also measured
Cl.NC(=O)CC[C@H](N)C(=O)O [L-glutamine-HCl] | very soluble in water | –
NC(=O)CC[C@H](N)C(=O)O [L-glutamine] | – | solubility in water (water at 30° C.): 5 grams/100 ml
CC(C)C[C@H](N)C(=O)O.Cl [L-leucine.HCl] | very soluble in water | –
CC(C)C[C@H](N)C(=O)O [L-leucine] | – | solubility in water (water at 25° C.): 2.4 g/100 ml
